The subject of data set [1] is Bacillus subtilis IAM 1027. Kind of data set: in vitro minimum inhibitory concentration (MIC), agar streak method. It counts as cell-based. Particulars: IAM1027.
Data set [2] deals with Sarcina lutea IAM 1009. The data set is described as above. The settings on record: Micrococcus luteus, IAM1009. It counts as cell-based.
Data set [3] concerns Staphylococcus aureus 209P IAM 1011. Described as above. Type of data set: cell-based.
The test system of data set [4] is Staphylococcus epidermidis IFO 12993. The data set is described as above. It counts as cell-based. The settings on record: IFO12993.
Data set [5] relates to Micrococcus flavus ATCC 10240. The data set is described as above. Type of data set: cell-based. Particulars: ATCC10240.
Data set [6] deals with Escherichia coli K-12 IAM 1264. Described as above. The settings on record: IAM1264. It counts as cell-based.
In data set [7] the test system is Pseudomonas aeruginosa IFO 12689. The description is as above. Type of data set: cell-based. Particulars: IFO12689.
Data set [8] deals with Proteus vulgaris IAM 1025. The data set is described as above. Type of data set: cell-based. Particulars: IAM1025.
Data set [9] deals with Klebsiella pheumonia IFO 3512. The description is as above. It counts as cell-based. The settings on record: IFO3512.
For data set [10], the system named is P388 leukemia. Kind of data set: antitumour activity against P388 leukemia in mice, survival time. It counts as in vivo, male CDF1 mice. The settings on record: i.p., days 1, 5 and 9; for Mean survival: control 10.6 ± 0.6. As for the experimental part:
4-Deoxy-aclacinomycin A obtained in the present invention was tested against P388 leukemia in mice. When male CDF1 mice (5 week old) were inoculated with 10^6 of P388 leukemia cells intraperitoneally and the antibiotic was administered through the same route on days 1, 5 and 9, the survival time of the treated mice was prolonged as shown in Table 6.

A short description of data set [11]: toxicity (survival of treated mice). Type of data set: in vivo. As for the experimental part: All the mice treated with 100 mg/kg of 4-deoxy-aclacinomycin A, i.p., survived more than 7 days.

SMILES strings stand for the structures. ≈ marks a conversion by molar mass, not a printed value. Read-outs that look alike come from different tables or passages of the source. Where only a bound is given, the exact number is not on record here.

In the case of `CC[C@@]1(O)C[C@H](O[C@H]2C[C@H](N(C)C)[C@H](O[C@H]3C[C@@H]4OC5CC(=O)C(C)OC5O[C@@H]4[C@H](C)O3)[C@H](C)O2)c2c(cc3c(c2O)C(=O)c2ccccc2C3=O)[C@H]1C(=O)OC` (stereo partly drawn) [4-Deoxy-aclacinomycin B, 4-deoxy-aclacinomycin B], the minimum inhibitory concentration (MIC) in data set [1] (Bacillus subtilis) was 6.25 µg/mL (≈ 7.87 µM); in data set [2], 0.39 µg/mL (≈ 0.491 µM); in data set [3] (Staphylococcus aureus) it was 3.13 µg/mL (≈ 3.94 µM); in data set [4] (Staphylococcus epidermidis), 3.13 µg/mL (≈ 3.94 µM); in data set [5] (Micrococcus flavus), 0.39 µg/mL (≈ 0.491 µM); in data set [6] (Escherichia coli), greater than 100 µg/mL. Besides, the minimum inhibitory concentration (MIC) in data set [7] (Pseudomonas aeruginosa), in data set [8] (Proteus vulgaris) and in data set [9] (Klebsiella) was greater than 100 µg/mL throughout.

With `CC[C@@]1(O)C[C@H](O[C@H]2C[C@H](N(C)C)[C@H](O[C@H]3C[C@H](O)[C@H](O[C@H]4CCC(=O)[C@H](C)O4)[C@H](C)O3)[C@H](C)O2)c2c(cc3c(c2O)C(=O)c2ccccc2C3=O)[C@H]1C(=O)OC` [4-Deoxy-aclacinomycin A, 4-deoxy-aclacinomycin A], the MIC in data set [1] (Bacillus subtilis IAM 1027, read-out: MIC) is 0.39 µg/mL (≈ 0.49 µM); in [2] (Sarcina lutea IAM 1009, read-out: MIC), 0.19 µg/mL (≈ 0.239 µM); in [3] (Staphylococcus aureus 209P IAM 1011, read-out: MIC), 0.78 µg/mL (≈ 0.98 µM); in data set [4] (Staphylococcus epidermidis IFO 12993, read-out: MIC) it was 0.78 µg/mL (≈ 0.98 µM); in [5] (Micrococcus flavus ATCC 10240, read-out: MIC), 0.19 µg/mL (≈ 0.239 µM); in data set [6] (Escherichia coli K-12 IAM 1264, read-out: MIC), greater than 100 µg/mL. Besides, the MIC in [7] (Pseudomonas aeruginosa IFO 12689, read-out: MIC) was greater than 100 µg/mL; in [8] (Proteus vulgaris IAM 1025, read-out: MIC), greater than 100 µg/mL; in data set [9] (Klebsiella pheumonia IFO 3512, read-out: MIC) it was greater than 100 µg/mL. The “Increase in life span (%)” value in data set [10] (total dose 5.6 mg/Kg) was 8%; in data set [10] (total dose 11.3 mg/Kg) it was 18%; in data set [10] (total dose 22.5 mg/Kg) it was 23%; in [10] (total dose 45 mg/Kg) it was 27%; in data set [10] (total dose 90 mg/Kg), 57%. Moreover, the Mean survival in data set [10] (total dose 5.6 mg/Kg) is 11.5 ± 0.5 days; in data set [10] (total dose 11.3 mg/Kg), 12.5 ± 0.5 days; in data set [10] (total dose 22.5 mg/Kg), 13.0 ± 0.0 days; in data set [10] (total dose 45 mg/Kg), 13.5 ± 0.5 days; in data set [10] (total dose 90 mg/Kg), 16.5 ± 0.5 days. For the same compound, the “survival of all the mice treated” value in [11] (100 mg/kg, i.p.) is “more than 7 days”. For the same compound, the “toxicity as compared with that of aclacinomycin A” value in data set [11] (statement in words) is “very low as compared with that of aclacinomycin A”.

One may read the MIC as the lowest concentration that inhibits growth of the organism.

The values above are taken from patent US4405713A, “Process for the preparation of optically active anthracycline glycosides A and B” (priority 1981, dated 1983).
